Results published in patent US6538032B1, “Phytosphingosine derivatives with antitumor activity” (Charmzone Co., Ltd., priority 2001, dated 2003).

Tested on: Lewis lung carcinoma (LLC) cells
Assay: inhibition of in vivo growth of Lewis lung carcinoma
Design: species or system BDF1 mice
Settings: 2000 μg, intraperitoneal, 20 doses; day 21
Procedure: The inhibition of cancer cell growth in vivo system was examined in BDF1 mice using Lewis lung carcinoma (LLC) cells. The concentration of LLC cells used was such that each mouse was injected with one million carcinoma cells via subcutaneous injection to induce a cancer. One hundred microliter of TMP liposome (TMP 100 μg) was injected intraperitoneally and intravenously, respectively, 1 day, 3 days, 6 days and 9 days after the injection of the above LLC cells. As a positive control, AG3340 (Agouron Pharmaceuticals Co., Ltd., USA), known as an MMP-2 (matrix metaloproteinasse-2) inhibitor, was suspended in 0.2% tween/0.5% carboxymethyl cellulose and 2 mg of the resulting suspension was intraperitoneally injected daily. […]
TMP.I liposomes (DPPC/Chol/TMP.I=5:5:1 mole ratio) having an anti-metastatic activity, was administered to BDF1 inoculated with Lewis Lung Carcinoma (LLC) cells and their inhibitory effect on the tumor growth was observed. […] The same administration was repeated after 3 days, 6 days and 9 days of the subcutaneous injection of the LLC cancer cells and 21 days after the injection each mouse was killed by dislocation of the cervical vertebra, and the volume of cancer was measured by the following equation and the results are shown in the following table 5. […]

CC1(C)SCCN(S(=O)(=O)c2ccc(Oc3ccncc3)cc2)[C@H]1C(=O)NO [AG3340]
Volume of Cancer: 1100 ± 250 mm^3
